# Measured values: patent US11357857B2, “Excipient compounds for protein processing” (COMERA LIFE SCIENCES, INC., priority 2014, dated 2022)
# “And” between values parts separate entries of the source, which are not always exact repeats. Identical values can stand only once. Counter-ions that a name gives are not always drawn. Like-named read-outs stand apart in the source and are kept apart here. Residues, ends and D or L forms follow the SMILES beside them.
# Columns and labels:
# [1] = system: bovine gamma globulin (BGG)
# [2] = Caffeine solubility testing with co-solutes at ambient temperature (Examples 32-33); conditions: for Observation of caffeine dissolution: caffeine 80 mg/mL; for Dissolution of caffeine enabled relative to reported solubility limit: co-solute in water, ambient temperature (about 23 C)
# Protocol: Prepared solutions were used either neat or diluted with deionized water.
# A small magnetic stir bar was added to the vial, and the solution was allowed to mix vigorously on a stir plate for about 10 minutes.
# [3] = system: bovine gamma globulin (BGG); assay: Normalized viscosity of 280 mg/mL BGG in 20 mM histidine with excipients A/B (Example 20); type: physicochemical; conditions: no B
# Excerpt: Excipient compounds for this Example are listed below in Table 11.
# [4] = system: bovine gamma globulin (BGG); assay: Viscosity of 280 mg/mL BGG formulations in 50 mM histidine HCl pH 6 with excipient, cone and plate viscometer (Examples 1, 2, 4-6); type: physicochemical
# [5] = Viscosity of PEG (Mw ~1,000,000) solution in Tris buffer with excipient (Examples 12-13); type: physicochemical
compound,measurement,setting,value
CCCCn1cc[n+](C)c1.[Cl-] [1-butyl-3-methylimidazolium chloride],Viscosity Reduction,[1]; excipient 100 mg/mL,52%
CCCCn1cc[n+](C)c1.[I-] [1-butyl-3-methylimidazolium iodide],Viscosity Reduction,[1]; excipient 60 mg/mL,34%
CCCCCCn1cc[n+](C)c1.[Cl-] [1-hexyl-3-methylimidazolium chloride],Viscosity Reduction,[1]; excipient 65 mg/mL,11%
"Cc1cc(C)nc(C)c1 [2,4,6-trimethylpyridine]",Viscosity Reduction,[1]; excipient 50 mg/mL,51%
O=C1CCCN1 [2-Pyrrolidinone],Viscosity Reduction,[1]; excipient 60 mg/mL,32%
CC1=NCCN1.Cl [2-methyl-2-imidazoline HCl],Normalized Viscosity,[1]; excipient 60 mg/mL,0.43
same,Viscosity Reduction,[1]; excipient 60 mg/mL,57%
Nc1cccnc1 [3-aminopyridine],Viscosity Reduction,[1]; excipient 50 mg/mL,49%
"CC1=CC(=O)NS(=O)(=O)O1 [Acesulfame K, acesulfame potassium]",Observation of caffeine dissolution,[2]; co-solute 80 mg/mL,DND
same,Normalized Viscosity,[3]; excipient A 40 mg/mL,0.61
same,Normalized Viscosity,[3]; excipient A 80 mg/mL,0.44
Nc1ncnc2c1ncn2[C@@H]1O[C@H](COP(=O)(O)O)[C@@H](O)[C@H]1O [Adenosine monophosphate],Viscosity,[4]; excipient 26 mg/mL,47 cP
same,Viscosity Reduction,[4]; excipient 26 mg/mL,41%
same,Viscosity,[4]; excipient 50 mg/mL,66 cP
same,Viscosity Reduction,[4]; excipient 50 mg/mL,16%
N=C(N)NCCCCN.O=S(=O)(O)O [Agmatine sulfate],Viscosity Reduction,[1]; excipient 55 mg/mL,23%
COC(=O)[C@H](Cc1ccccc1)NC(=O)[C@@H](N)CC(=O)O [Aspartame] (H-Asp-Phe-OMe),Normalized Viscosity,[3]; excipient A 10 mg/mL,0.83
O=C(O)CCCC[C@@H]1SC[C@@H]2NC(=O)N[C@@H]21 [Biotin],Viscosity Reduction,[1]; excipient 20 mg/mL,31%
"O=C(O)[C@H](O)[C@@H](O)[C@H](O)[C@H](O)CO [D-Gluconic acid/K salt, D-Gluconic acid]",Viscosity,[5]; excipient 20 mg/mL,88.4 cP
same,Viscosity Reduction,[5]; excipient 20 mg/mL,16%
same,Viscosity,[5]; excipient 40 mg/mL,80.32 cP
same,Viscosity Reduction,[5]; excipient 40 mg/mL,23%
"O=C(O)[C@H](O)[C@@H](O)[C@H](O)[C@H](O)CO [D-Gluconic acid/Na salt, D-Gluconic acid]",Viscosity,[5]; excipient 20 mg/mL,86.6 cP
same,Viscosity Reduction,[5]; excipient 20 mg/mL,17%
same,Viscosity,[5]; excipient 40 mg/mL,81.24 cP
same,Viscosity Reduction,[5]; excipient 40 mg/mL,23%
"NC(C1CCCCC1)C1CCCCC1 [DCHMA-HCl, dicyclohexylmethylamine]",Viscosity,[4]; excipient 29 mg/mL,51 cP
same,Viscosity Reduction,[4]; excipient 29 mg/mL,35%
same,Viscosity,[4]; excipient 50 mg/mL,51 cP
same,Viscosity Reduction,[4]; excipient 50 mg/mL,35%
"CN(C)CCCN [DMAPA-HCl, dimethylaminopropylamine]",Viscosity,[4]; excipient 40 mg/mL,54 cP
same,Viscosity Reduction,[4]; excipient 40 mg/mL,32%
same,Viscosity,[4]; excipient 87 mg/mL,57 cP
same,Viscosity Reduction,[4]; excipient 87 mg/mL,28%
"CN(C)C1CCCCC1 [DMCHA-HCl, dimethylcyclohexylamine]",Viscosity,[4],35 cP
same,Viscosity Reduction,[4],56%
same,Viscosity,[4]; excipient 28 mg/mL,50 cP
same,Viscosity Reduction,[4]; excipient 28 mg/mL,37%
same,Viscosity,[4]; excipient 41 mg/mL,43 cP
same,Viscosity Reduction,[4]; excipient 41 mg/mL,46%
same,Viscosity,[4]; excipient 50 mg/mL,45 cP
same,Viscosity Reduction,[4]; excipient 50 mg/mL,43%
same,Viscosity,[4]; excipient 82 mg/mL,36 cP
same,Viscosity Reduction,[4]; excipient 82 mg/mL,54%
same,Viscosity,[4]; excipient 164 mg/mL,40 cP
same,Viscosity Reduction,[4]; excipient 164 mg/mL,49%
same,Viscosity Reduction,[1]; excipient 120 mg/mL,56%
"O=C(O)CN(CCN(CC(=O)O)CC(=O)O)CC(=O)O [EDTA/K salt, ethylenediaminetetraacetic acid (EDTA)]",Viscosity,[5]; excipient 20 mg/mL,76.9 cP
same,Viscosity Reduction,[5]; excipient 20 mg/mL,27%
same,Viscosity,[5]; excipient 40 mg/mL,67.1 cP
same,Viscosity Reduction,[5]; excipient 40 mg/mL,36%
"O=C(O)CN(CCN(CC(=O)O)CC(=O)O)CC(=O)O [EDTA/Na salt, ethylenediaminetetraacetic acid (EDTA)]",Viscosity,[5]; excipient 20 mg/mL,77.4 cP
same,Viscosity Reduction,[5]; excipient 20 mg/mL,26%
same,Viscosity,[5]; excipient 40 mg/mL,68.1 cP
same,Viscosity Reduction,[5]; excipient 40 mg/mL,35%
NCCN [Ethylene diamine],Viscosity,[5]; excipient 20 mg/mL,83.9 cP
same,Viscosity Reduction,[5]; excipient 20 mg/mL,15%
same,Viscosity,[5]; excipient 40 mg/mL,84.7 cP
same,Viscosity Reduction,[5]; excipient 40 mg/mL,17%
Cl.NCCc1c[nH]cn1 [Histamine HCl],Viscosity Reduction,[1]; excipient 50 mg/mL,59%
c1c[nH]cn1 [Imidazole HCl],Viscosity Reduction,[1]; excipient 100 mg/mL,57%
NC(=O)c1ccncc1 [Isonicotinamide],Viscosity Reduction,[1]; excipient 50 mg/mL,52%
Cn1cncc1C[C@H](NC(=O)CCN)C(=O)O.O=[N+]([O-])O [L-Anserine nitrate],Viscosity Reduction,[1]; excipient 50 mg/mL,21%
C1COCCN1.Cl [Morpholine HCl],Viscosity Reduction,[1]; excipient 50 mg/mL,40%
"CCN(CC)C(=O)c1cccnc1 [N,N-diethyl nicotinamide]",Viscosity Reduction,[1]; excipient 50 mg/mL,33%
CN1CCCC1=O [N-Methyl-2-pyrrolidone],Viscosity,[4]; excipient 30 mg/mL,45 cP
same,Viscosity Reduction,[4]; excipient 30 mg/mL,43%
same,Viscosity,[4]; excipient 52 mg/mL,52 cP
same,Viscosity Reduction,[4]; excipient 52 mg/mL,34%
NC(=O)c1cccnc1 [Niacinamide],Observation of caffeine dissolution,[2]; co-solute 30 mg/mL,DND
same,Viscosity,[4]; excipient 48 mg/mL,39 cP
same,Viscosity Reduction,[4]; excipient 48 mg/mL,51%
same,Viscosity Reduction,[1]; excipient 50 mg/mL,49%
"O=C([O-])c1cccnc1.[Na+] [Nicotinic acid, sodium salt]",Viscosity Reduction,[1]; excipient 100 mg/mL,46%
"N=C(N)NCCS(=O)(=O)O [Product of Example 8, Guanyl taurine]",Viscosity,[4]; excipient 26 mg/mL,58 cP
same,Viscosity Reduction,[4]; excipient 26 mg/mL,27%
same,Viscosity,[4]; excipient 58 mg/mL,50 cP
same,Viscosity Reduction,[4]; excipient 58 mg/mL,37%
same,Viscosity,[4]; excipient 76 mg/mL,49 cP
same,Viscosity Reduction,[4]; excipient 76 mg/mL,38%
same,Viscosity,[4]; excipient 103 mg/mL,46 cP
same,Viscosity Reduction,[4]; excipient 103 mg/mL,42%
same,Viscosity,[4]; excipient 129 mg/mL,47 cP
same,Viscosity Reduction,[4]; excipient 129 mg/mL,41%
same,Viscosity,[4]; excipient 159 mg/mL,42 cP
same,Viscosity Reduction,[4]; excipient 159 mg/mL,47%
same,Viscosity,[4]; excipient 163 mg/mL,42 cP
same,Viscosity Reduction,[4]; excipient 163 mg/mL,47%
"O=C1NS(=O)(=O)c2ccccc21.[Na] [Saccharin, Na, saccharin sodium salt]",Observation of caffeine dissolution,[2]; co-solute 45 mg/mL,DND
same,Dissolution of caffeine enabled relative to reported solubility limit,[2],at least about four times
O=C1NS(=O)(=O)c2ccccc21 [Saccharin],Normalized Viscosity,[3]; excipient A 30 mg/mL,0.58
same,Normalized Viscosity,[3]; excipient A 60 mg/mL,0.51
O=C([O-])c1ccccc1.[Na+] [Sodium benzoate],Viscosity,[4]; excipient 31 mg/mL,61 cP
same,Viscosity Reduction,[4]; excipient 31 mg/mL,23%
same,Viscosity,[4]; excipient 56 mg/mL,62 cP
same,Viscosity Reduction,[4]; excipient 56 mg/mL,22%
O=C([O-])C(=O)Cc1ccccc1.[Na+] [Sodium phenylpyruvate],Viscosity Reduction,[1]; excipient 55 mg/mL,43%
O=C([O-])c1ccccc1O.[Na+] [Sodium salicylate],Viscosity,[4],57 cP and 52 cP
Nc1ccc(S(=O)(=O)[O-])cc1.[Na+] [Sodium sulfanilate],Viscosity,[4]; excipient 44 mg/mL,49 cP
same,Viscosity Reduction,[4]; excipient 44 mg/mL,38%
same,Viscosity,[4]; excipient 96 mg/mL,42 cP
same,Viscosity Reduction,[4]; excipient 96 mg/mL,47%
Cn1c(=O)c2[nH]cnc2n(C)c1=O [Theophylline],Normalized Viscosity,[3]; excipient A 10 mg/mL,0.84
Cl.NCCc1ccc(O)cc1 [Tyramine HCl],Observation of caffeine dissolution,[2]; co-solute 30 mg/mL,DND
same,Dissolution of caffeine enabled relative to reported solubility limit,[2],at least about four times
same,Viscosity Reduction,[1]; excipient 70 mg/mL,59%
"COc1cc(C(=O)[O-])ccc1O.[Na+] [Vanillic acid, sodium salt]",Viscosity,[4]; excipient 25 mg/mL,56 cP
same,Viscosity Reduction,[4]; excipient 25 mg/mL,29%
same,Viscosity,[4]; excipient 50 mg/mL,50 cP
same,Viscosity Reduction,[4]; excipient 50 mg/mL,37%
"CC(O)(P(=O)(O)O)P(=O)(O)O [etidronic acid/K salt, etidronic acid]",Viscosity,[5]; excipient 12 mg/mL,80.5 cP
same,Viscosity Reduction,[5]; excipient 12 mg/mL,23%
same,Viscosity,[5]; excipient 24 mg/mL,71.91 cP
same,Viscosity Reduction,[5]; excipient 24 mg/mL,31%
"CC(O)(P(=O)(O)O)P(=O)(O)O [etidronic acid/Na salt, etidronic acid]",Viscosity,[5]; excipient 12 mg/mL,79.4 cP
same,Viscosity Reduction,[5]; excipient 12 mg/mL,24%
same,Viscosity,[5]; excipient 24 mg/mL,71.6 cP
same,Viscosity Reduction,[5]; excipient 24 mg/mL,32%
O=P(O)(O)OCC(O)CO (centres unmarked) [glycerol phosphate],Viscosity,[5]; excipient 20 mg/mL,83.9 cP
same,Viscosity Reduction,[5]; excipient 20 mg/mL,18%
same,Viscosity,[5]; excipient 40 mg/mL,71.7 cP
same,Viscosity Reduction,[5]; excipient 40 mg/mL,30%
Arg-Arg [Dipeptide RR (Arg-Arg)],Viscosity,[4]; excipient 50 mg/mL,57 cP
same,Viscosity Reduction,[4]; excipient 50 mg/mL,28%
same,Viscosity,[4]; excipient 100 mg/mL,62 cP
same,Viscosity Reduction,[4]; excipient 100 mg/mL,22%
Arg-Glu [Dipeptide RE (Arg-Glu)],Viscosity,[4]; excipient 50 mg/mL,50 cP
same,Viscosity Reduction,[4]; excipient 50 mg/mL,37%
same,Viscosity,[4]; excipient 100 mg/mL,66 cP
same,Viscosity Reduction,[4]; excipient 100 mg/mL,16%
Arg-His [Dipeptide RH (Arg-His)],Viscosity,[4]; excipient 50 mg/mL,52 cP
same,Viscosity Reduction,[4]; excipient 50 mg/mL,34%
same,Viscosity,[4]; excipient 100 mg/mL,72 cP
same,Viscosity Reduction,[4]; excipient 100 mg/mL,9%
Arg-Lys [Dipeptide RK (Arg-Lys)],Viscosity,[4]; excipient 50 mg/mL,53 cP
same,Viscosity Reduction,[4]; excipient 50 mg/mL,33%
same,Viscosity,[4]; excipient 100 mg/mL,64 cP
same,Viscosity Reduction,[4]; excipient 100 mg/mL,19%
Arg-Pro [Dipeptide RP (Arg-Pro)],Viscosity,[4]; excipient 50 mg/mL,51 cP
same,Viscosity Reduction,[4]; excipient 50 mg/mL,35%
same,Viscosity,[4]; excipient 100 mg/mL,53 cP
same,Viscosity Reduction,[4]; excipient 100 mg/mL,33%
Leu-Glu [Dipeptide LE (Leu-Glu)],Viscosity,[4]; excipient 50 mg/mL,72 cP
same,Viscosity Reduction,[4]; excipient 50 mg/mL,9%
same,Viscosity,[4]; excipient 100 mg/mL,87 cP
same,Viscosity Reduction,[4]; excipient 100 mg/mL,−10%
Trp2Lys3,Viscosity,[4]; excipient 50 mg/mL,60 cP
same,Viscosity Reduction,[4]; excipient 50 mg/mL,24%
same,Viscosity,[4]; excipient 100 mg/mL,59 cP
same,Viscosity Reduction,[4]; excipient 100 mg/mL,25%
Tyr-Glu [Dipeptide YE (Tyr-Glu)],Viscosity,[4]; excipient 50 mg/mL,55 cP
same,Viscosity Reduction,[4]; excipient 50 mg/mL,30%
same,Viscosity,[4]; excipient 100 mg/mL,68 cP
same,Viscosity Reduction,[4]; excipient 100 mg/mL,14%
dimethylcyclohexylammonium hydroxybenzoate [DMCHA-hydroxybenzoate],Viscosity,[4]; excipient 67 mg/mL,46 cP
same,Viscosity Reduction,[4]; excipient 67 mg/mL,42%
same,Viscosity,[4]; excipient 92 mg/mL,42 cP
same,Viscosity Reduction,[4]; excipient 92 mg/mL,47%
